Results reported in ChEMBL document CHEMBL3272040, “3-Cyanocephems, and carbon-3 heterocyclic-substituted cephems via 1,3-dipolar cycloadditions” (1976).
Values after ≈ are worked out from the molar mass of the structure shown.

Legend:
[1] = system: Staphylococcus aureus; experiment: Antimicrobial activity against Staphylococcus aureus MB-2865; assay type: functional
[2] = system: Streptococcus pyogenes; experiment: Antimicrobial activity against Streptococcus pyogenes MB-3124; assay type: functional

| Compound | MIC [1] [µg/mL] | MIC [2] [µg/mL] |
| --- | --- | --- |
| O=C(Cc1cccs1)N[C@@H]1C(=O)N2C(C(=O)OC(c3ccccc3)c3ccccc3)=C(/C=N/OCc3ccccc3)CS[C@H]12 |  | < 0.39 |
| [N-]=[N+]=CC1=C(C(=O)OC(c2ccccc2)c2ccccc2)N2C(=O)[C@@H](NC(=O)Cc3cccs3)[C@H]2SC1 |  | < 0.39 |
| O=C(Cc1cccs1)N[C@@H]1C(=O)N2C(C(=O)OC(c3ccccc3)c3ccccc3)=C(/C=N/NC(=O)c3ccccc3)CS[C@H]12 |  | < 0.39 |
| Cc1ccc(S(=O)(=O)[N-]/N=C/C2=C(C(=O)OC(c3ccccc3)c3ccccc3)N3C(=O)[C@@H](NC(=O)Cc4cccs4)[C@H]3SC2)cc1.[Li+] |  | < 0.39 |
| O=CC1=C(C(=O)OC(c2ccccc2)c2ccccc2)N2C(=O)[C@@H](NC(=O)Cc3cccs3)[C@H]2SC1 |  | < 0.39 |
| O=C(Cc1cccs1)N[C@@H]1C(=O)N2C(C(=O)OC(c3ccccc3)c3ccccc3)=C(c3nn[nH]c3C(F)(F)F)CS[C@H]12 |  | < 0.39 |
| N#CC1=C(C(=O)OC(c2ccccc2)c2ccccc2)N2C(=O)[C@@H](NC(=O)Cc3cccs3)[C@H]2SC1 |  | < 0.39 |
| CCOC(=O)C1CC(C2=C(C(=O)OC(c3ccccc3)c3ccccc3)N3C(=O)[C@@H](NC(=O)Cc4cccs4)[C@H]3SC2)=NN1 (stereo partly specified) |  | < 0.39 |
| O=C(Cc1cccs1)N[C@@H]1C(=O)N2C(C(=O)OC(c3ccccc3)c3ccccc3)=C(C#[N+][O-])CS[C@H]12 |  | < 0.39 |
| O=C(Cc1cccs1)N[C@@H]1C(=O)N2C(C(=O)OC(c3ccccc3)c3ccccc3)=C(/C=N/Nc3ccc([N+](=O)[O-])cc3)CS[C@H]12 |  | < 0.39 |
| O=C(Cc1cccs1)N[C@@H]1C(=O)N2C(C(=O)OC(c3ccccc3)c3ccccc3)=C(c3cc(-c4ccccc4)on3)CS[C@H]12 |  | < 0.39 |
| CCOC(=O)N/N=C/C1=C(C(=O)OC(c2ccccc2)c2ccccc2)N2C(=O)[C@@H](NC(=O)Cc3cccs3)[C@H]2SC1 |  | < 0.39 |
| Cc1ccc(S(=O)(=O)N/N=C/C2=C(C(=O)OC(c3ccccc3)c3ccccc3)N3C(=O)[C@@H](NC(=O)Cc4cccs4)[C@H]3SC2)cc1 |  | < 0.39 |
| O=C(Cc1cccs1)N[C@@H]1C(=O)N2C(C(=O)OC(c3ccccc3)c3ccccc3)=C(/C=N/O)CS[C@H]12 |  | < 0.39 |
| CO/N=C/C1=C(C(=O)OC(c2ccccc2)c2ccccc2)N2C(=O)[C@@H](NC(=O)Cc3cccs3)[C@H]2SC1 |  | < 0.39 |
| Cc1ccc(S(=O)(=O)N(C)/N=C/C2=C(C(=O)OC(c3ccccc3)c3ccccc3)N3C(=O)[C@@H](NC(=O)Cc4cccs4)[C@H]3SC2)cc1 |  | < 0.39 |

Further lines, results first:

| MIC [1] [µg/mL] | MIC [2] [µg/mL] | Compound |
| --- | --- | --- |
| 12.5 (≈ 28.4 µM) | < 0.39 | COC(=O)CO/N=C/C1=C(C(=O)O)N2C(=O)[C@@H](NC(=O)Cc3cccs3)[C@H]2SC1 |
|  | < 0.39 | O=C(O)CO/N=C/C1=C(C(=O)OC(c2ccccc2)c2ccccc2)N2C(=O)[C@@H](NC(=O)Cc3cccs3)[C@H]2SC1 |
| < 0.39 | < 0.39 | O=C(Cc1cccs1)N[C@@H]1C(=O)N2C(C(=O)O)=C(c3cc(-c4ccccc4)on3)CS[C@H]12 |
| 3.12 (≈ 6.96 µM) | < 0.39 | COC(=O)c1cc(C2=C(C(=O)O)N3C(=O)[C@@H](NC(=O)Cc4cccs4)[C@H]3SC2)n[nH]1 |
|  | < 0.39 | COC(=O)c1[nH]nc(C2=C(C(=O)OC(c3ccccc3)c3ccccc3)N3C(=O)[C@@H](NC(=O)Cc4cccs4)[C@H]3SC2)c1C(=O)OC |
|  | < 0.39 | CC(=O)N/N=C/C1=C(C(=O)OC(c2ccccc2)c2ccccc2)N2C(=O)[C@@H](NC(=O)Cc3cccs3)[C@H]2SC1 |
| 0.78 (≈ 2.23 µM) | < 0.39 | N#CC1=C(C(=O)O)N2C(=O)[C@@H](NC(=O)Cc3cccs3)[C@H]2SC1 |
|  | < 0.39 | COC(=O)C1=C(c2cc(-c3ccccc3)on2)CS[C@@H]2[C@H](NC(=O)Cc3cccs3)C(=O)N12 |
| < 0.39 | < 0.39 | O=C(Cc1cccs1)N[C@@H]1C(=O)N2C(C(=O)O)=C(/C=N/O)CS[C@H]12 |
| 0.78 (≈ 1.69 µM) | < 0.39 | COC(=O)c1cc(C2=C(C(=O)O)N3C(=O)[C@@H](NC(=O)Cc4cccs4)[C@H]3SC2)nn1C |
|  | < 0.39 | COC(=O)CO/N=C/C1=C(C(=O)OC(c2ccccc2)c2ccccc2)N2C(=O)[C@@H](NC(=O)Cc3cccs3)[C@H]2SC1 |
|  | < 0.39 | COC(=O)c1cc(C2=C(C(=O)OC(c3ccccc3)c3ccccc3)N3C(=O)[C@@H](NC(=O)Cc4cccs4)[C@H]3SC2)n[nH]1 |
| < 0.39 | < 0.39 | Cc1ccc(S(=O)(=O)N(C)/N=C/C2=C(C(=O)O)N3C(=O)[C@@H](NC(=O)Cc4cccs4)[C@H]3SC2)cc1 |
|  | < 0.39 | COC(=O)C1=C(c2cc(C(=O)OC)n(C)n2)CS[C@@H]2[C@H](NC(=O)Cc3cccs3)C(=O)N12 |
|  | < 0.39 | COC(=O)C1=C(/C=N/O)CS[C@@H]2[C@H](NC(=O)Cc3cccs3)C(=O)N12 |
|  | < 0.39 | COC(=O)C1=C(/C=N/N(C)S(=O)(=O)c2ccc(C)cc2)CS[C@@H]2[C@H](NC(=O)Cc3cccs3)C(=O)N12 |
|  | < 0.39 | COC(=O)c1cc(C2=C(C(=O)OC(c3ccccc3)c3ccccc3)N3C(=O)[C@@H](NC(=O)Cc4cccs4)[C@H]3SC2)nn1C |
|  | < 0.39 | COC(=O)CO/N=C/C1=C(C(=O)OC)N2C(=O)[C@@H](NC(=O)Cc3cccs3)[C@H]2SC1 |
